Data on 2 compounds can be found in PMC9031804, “The Peptide-Drug Conjugate TH1902: A New Sortilin Receptor-Mediated Cancer Therapeutic against Ovarian and Endometrial Cancers” (Cancers, 2022).

The test system of data set [1] is SORT1 in SKOV3 ovarian cancer cells. Kind of data set: Competition of TH19P01-Alexa^488 uptake, SKOV3. Type of data set: cell-based, human. Conditions: 10 µM neurotensin, 2 h, n = 4. The method, then:
(§1) Cells were grown in 12-well plates in complete media for 24 h. Where required, cells were transiently transfected with 100 nM of siRNA (either a scrambled, control siRNA, or one that was directed against a particular mRNA) for 24 h using Lipofectamine 2000. Cells were next washed with PBS and then incubated in HBSS without phenol red for 2 h at 37 °C in the presence or absence of 200 nM Alexa^488-labeled TH19P01 peptide. Alexa^488-labeled TH19P01 peptide uptake was also measured with or without competition by an excess of unlabeled TH19P01 peptide (50 µM) or neurotensin (10 µM) during a 2 h uptake before washing with serum-free media. Cell fluorescence was evaluated in the FL1 channel using a C6 Accuri flow cytometer (BD Biosciences, Mississauga, ON, Canada).
(§2) Figure 4 Internalization of TH19P01-Alexa^488 peptide by SORT1 in ovarian cancer cell lines. […] (B) Uptake of TH19P01-Alexa^488 into two ovarian cancer cell lines was measured in the presence of excess concentrations of substrates known to bind to SORT1 (50 µM TH19P01 and 10 µM neurotensin). […] Results are expressed as normalized RFU according to measurements of control wells. […]

The subject of data set [2] is SORT1 in ES-2 ovarian cancer cells. Put plainly: Competition of TH19P01-Alexa^488 uptake, ES-2. Conditions: 10 µM neurotensin, 2 h, n = 4. It counts as cell-based, human. The procedure: as §1, §2
The conditions of data set [3]: ref [38]; cited from earlier work. The source says: Taxanes, mainly paclitaxel and docetaxel, are well-known microtubule stabilizers used in various cancer including ovarian and endometrial cancer first-line therapies in the last thirty years. […] Here, the new chemical entity TH1902 is distinct from the docetaxel molecule as it selectively exploits SORT1’s internalization properties to trigger cell apoptosis in ES-2 and ...

The test system of data set [4] is A2780 ovarian cancer xenografts. Kind of data set: A2780 ovarian cancer xenograft tumor growth. Type of data set: in vivo, human tumor in female athymic nude mice. Conditions: single agent 10 mg/kg IV bi-weekly. An excerpt: Animals were obtained from Charles River Laboratories, Inc. and allowed to acclimate for 5 days before experiments. Female CD-1 nude mice (Crl:CD1-Foxn1^nu, 4–6 weeks old; ES-2) or athymic nude mice (Crl:NU(NCr)-Foxn1^nu, 4–6 weeks old; SKOV3, A2780, AN3-CA) were used for the xenograft tumor models. Mice were maintained in a pathogen-free environment and handled in accordance with the Guidelines of the Canadian Council on Animal Care. Animal protocols were approved by the Institutional Animal Care and Use Committee of Université du Québec à Montréal (0620-C1R1-897-0621).
Tumor xenografts were established by subcutaneous inoculation of 5 × 10^6 cells (ES-2) or 7 × 10^6 cells (SKOV3) in 150 µL of HBSS; other xenografts were established by subcutaneous inoculation of 5 × 10^6 cells (A2780) or 2 × 10^6 cells (AN3-CA) in 150 µL of HBSS/Matrigel (50:50). All cells were injected into the right flanks of immunodeficient mice under light isoflurane anesthesia. The injection schedules and doses of injected substances are detailed in the figures. Briefly, when palpable ES-2, SKOV3 or AN3-CA tumors reached a volume of ~100 mm^3, mice were treated weekly with either vehicle, docetaxel (3.75 or 15 mg/kg) or TH1902 (8.75 or 35 mg/kg) at equivalent docetaxel amounts via intravenous (IV) tail vein injection. Note that three cycles of 15 mg/kg docetaxel is the maximum tolerated dose in mice and that 35 mg/kg TH1902 contains the same quantity of docetaxel (bis-linked to the peptide). In A2780 xenografts, when palpable tumors reached a volume of ~250 mm^3, mice were treated with either vehicle, paclitaxel (10 mg/kg, IV), carboplatin (40 mg/kg, intraperitoneal (IP)), docetaxel (10 mg/kg, IV) or TH1902 (23 mg/kg, IV) bi-weekly as single agents or once on Day-0 as combinations with carboplatin. For combination treatments, both taxanes and TH1902 were injected 1 h following carboplatin administrations at the doses previously described. Injectable solutions were prepared as follows: TH1902 was solubilized at 10 mg/mL in 10% Tween-80 in D5W (pH 4.3, w/v) then further diluted with D5W; docetaxel was solubilized at 25 mg/mL in ethanol and Tween-80 (50/50, v/v) then further diluted with D5W; paclitaxel was solubilized at 25 mg/mL in ethanol and Cremophor EL (50/50, v/v) then further diluted in saline; carboplatin was solubilized at 50 mg/mL in water then further diluted in a solution of 30% PEG400 and 5% Tween-80 in D5W (w/v); vehicle composition and preparation mimicked highest dose of TH1902 preparation. Tumor growth was monitored by two-dimensional measurements taken with an electronic caliper and tumor volume was calculated according to the following formula: tumor volume (mm^3) = π/6 × length × width^2. Data are expressed as mean ± SEM and were analyzed using GraphPad Prism software.
Figure 8 Effects of TH1902 and carboplatin combinations on A2780 ovarian cancer xenografts. A2780 cells were subcutaneously implanted in the flanks of athymic nude mice. Tumor volume measurements following bi-weekly administrations of (A) vehicle, docetaxel, TH1902, paclitaxel or carboplatin as single agents, or (B) administered once in combination using the same dosage as described in the methods section. Colored dots below indicate drug treatments for all groups. Data are represented as mean ± SEM (n = 5 mice/group).
Background: A xenograft is tissue or cells of one species grown in another, often human tumour cells in immunodeficient mice.

With “neurotensin: known ligand of SORT1, synthesized in-house”, the “TH19P01-Alexa^488 uptake with neurotensin” value in data set [1] and in data set [2] was “reduced” in each case.
For `CC(=O)O[C@H]1C(=O)[C@@]2(C)[C@H]([C@H](OC(=O)c3ccccc3)[C@]3(O)C[C@H](OC(=O)[C@H](O)[C@@H](NC(=O)c4ccccc4)c4ccccc4)C(C)=C1C3(C)C)[C@]1(OC(C)=O)CO[C@@H]1C[C@@H]2O` [Paclitaxel, paclitaxel], the Water solubility result in data set [3] is “very poor water solubility”. The Tumor growth inhibition in data set [4] is reported as 36%. In addition, the “Tumor progression, Size Increase (x-Fold Day-0)” value in data set [4] (vehicle group endpoint, n = 5 mice/group) is given as 4.21 x-Fold Day-0.
